Measured values reported in ChEMBL document CHEMBL1134731, “1,3-Biarylureas as selective non-peptide antagonists of the orexin-1 receptor” (Bioorg Med Chem Lett, 2001).

Assays:
[1] = molecular target: T1, Orexin/Hypocretin receptor type 1 (Homo sapiens) (UniProt O43613); assay: Binding affinity towards orexin receptor type 1.
T1 sequence (whole entry): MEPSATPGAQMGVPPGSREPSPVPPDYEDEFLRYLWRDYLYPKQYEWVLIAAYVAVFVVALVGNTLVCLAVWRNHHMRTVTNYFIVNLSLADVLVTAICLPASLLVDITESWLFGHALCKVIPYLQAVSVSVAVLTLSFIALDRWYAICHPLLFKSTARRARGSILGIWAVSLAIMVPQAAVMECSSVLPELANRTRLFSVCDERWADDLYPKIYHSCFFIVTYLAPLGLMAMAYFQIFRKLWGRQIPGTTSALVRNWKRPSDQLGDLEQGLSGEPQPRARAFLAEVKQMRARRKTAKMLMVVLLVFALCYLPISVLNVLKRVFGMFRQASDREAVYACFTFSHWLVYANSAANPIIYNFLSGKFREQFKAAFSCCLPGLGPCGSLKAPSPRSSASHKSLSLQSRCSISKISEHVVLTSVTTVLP

[2] = molecular target: 5-hydroxytryptamine receptor 2B (Homo sapiens, UniProt P41595); assay: Binding affinity against 5-hydroxytryptamine 2B receptor
Sequence of 5-hydroxytryptamine receptor 2B (P41595 whole entry): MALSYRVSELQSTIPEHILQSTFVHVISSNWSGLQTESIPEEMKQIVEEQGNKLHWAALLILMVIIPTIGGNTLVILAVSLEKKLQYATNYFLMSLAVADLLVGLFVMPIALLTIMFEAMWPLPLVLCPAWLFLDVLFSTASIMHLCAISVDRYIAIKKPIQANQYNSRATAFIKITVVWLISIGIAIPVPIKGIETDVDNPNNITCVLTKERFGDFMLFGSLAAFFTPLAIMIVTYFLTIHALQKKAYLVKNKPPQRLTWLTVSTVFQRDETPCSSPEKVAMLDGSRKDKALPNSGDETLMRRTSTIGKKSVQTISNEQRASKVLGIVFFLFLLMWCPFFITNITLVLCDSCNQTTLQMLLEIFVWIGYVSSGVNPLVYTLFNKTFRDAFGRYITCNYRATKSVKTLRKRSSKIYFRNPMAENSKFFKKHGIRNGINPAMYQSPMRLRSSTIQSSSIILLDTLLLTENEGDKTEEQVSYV

[3] = molecular target: T2, 5-hydroxytryptamine receptor 2C (Homo sapiens, UniProt P28335); assay: Binding affinity against 5-hydroxytryptamine 2C receptor
T2 sequence (P28335 whole entry): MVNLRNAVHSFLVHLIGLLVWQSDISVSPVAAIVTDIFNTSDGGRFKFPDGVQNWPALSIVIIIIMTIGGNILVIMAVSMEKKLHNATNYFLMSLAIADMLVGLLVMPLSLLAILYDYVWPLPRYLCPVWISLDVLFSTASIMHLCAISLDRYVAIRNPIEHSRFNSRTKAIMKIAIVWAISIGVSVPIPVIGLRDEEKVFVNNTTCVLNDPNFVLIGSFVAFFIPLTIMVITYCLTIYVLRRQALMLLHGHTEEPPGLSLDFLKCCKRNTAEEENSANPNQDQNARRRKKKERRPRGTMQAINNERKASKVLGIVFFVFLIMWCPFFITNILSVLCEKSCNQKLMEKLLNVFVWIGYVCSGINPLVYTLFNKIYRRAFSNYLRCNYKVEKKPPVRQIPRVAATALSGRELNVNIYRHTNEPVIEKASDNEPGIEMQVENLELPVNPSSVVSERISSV

[4] = Compound was tested in vivo for steady state brain-blood ratio after intravenous infusion of 1.8 mg/kg/h free base drug for 12h.; type: functional
[5] = Steady state concentration was evaluated; type: ADME
[6] = molecular target: T3, Orexin receptor type 2 (Homo sapiens) (UniProt O43614)
T3 sequence (whole entry): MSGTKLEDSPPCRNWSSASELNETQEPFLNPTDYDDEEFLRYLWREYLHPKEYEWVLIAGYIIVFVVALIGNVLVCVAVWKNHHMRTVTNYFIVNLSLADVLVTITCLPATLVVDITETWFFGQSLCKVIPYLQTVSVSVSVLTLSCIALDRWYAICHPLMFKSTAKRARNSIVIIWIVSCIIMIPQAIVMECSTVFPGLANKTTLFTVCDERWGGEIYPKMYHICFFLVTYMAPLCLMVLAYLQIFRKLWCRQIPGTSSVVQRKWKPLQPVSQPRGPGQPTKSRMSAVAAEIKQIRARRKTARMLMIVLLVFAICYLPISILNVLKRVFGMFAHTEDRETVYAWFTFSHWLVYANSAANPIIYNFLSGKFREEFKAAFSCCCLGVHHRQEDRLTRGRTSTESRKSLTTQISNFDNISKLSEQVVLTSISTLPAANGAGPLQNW
Description: Compound was evaluated for its binding affinity towards Orexin receptor type 2

[7] = in vivo; settings: eutheria, po
[8] = Half life was evaluated in vivo after intraperitoneal administration; settings: ip
[9] = Brain level determined after 2 hr from ip bolus dosing of 10 mg/kg; type: functional; settings: route intraperitoneal
[10] = Brain level determined after 4 hr from a bolus 10 mg/kg ip dosing; type: functional; settings: route intraperitoneal

Work on O=C(Nc1ccc(N2CCCC2)cc1)Nc1ccnc2ccccc12 yielded a pKb [1] of 6.4.
Cn1ccc2cc(NC(=O)Nc3ccnc4cccnc34)ccc21 gave a pKb [1] of 7.3.
Cc1cc2cc(NC(=O)Nc3ccnc4ccccc34)ccc2n1C showed a Ki [2] of 3.98 nM and a Ki [3] of 79.4 nM.
For COc1ccc(NC(=O)Nc2ccnc3ccccc23)cc1, the pKb [1] was 6.8.
For O=C(Nc1ccccc1)Nc1ccnc2ccccc12, the pKb [1] was < 6.1.
CN(C)c1ccc(NC(=O)Nc2ccnc3ccccc23)cc1Cl gave a pKb [1] of 7.4.
In the case of Cn1ccc2cc(NC(=O)Nc3ncnc4ccccc34)ccc21, the pKb [1] is reported as < 6.3.
For O=C(Nc1ccc2[nH]ccc2c1)Nc1ccnc2ccccc12, the pKb [1] was 6.2.
In the case of Cc1nc2ccc(NC(=O)Nc3ccnc4ccncc34)cc2o1, the pKb [1] is reported as 5.9.
With COc1ccc(NC(=O)Nc2ccnc3ccccc23)cc1OC the pKb [1] was < 6.3.
In the case of O=C(Nc1cccc(Cl)c1)Nc1ccnc2ccccc12, the pKb [1] is reported as 6.4.
Compound CCN(CC)c1ccc(NC(=O)Nc2ccnc3ccccc23)cc1 has a Ratio [4] of 0.16, a pKb [1] of 7.4 and a Ki [2] of 50.1 nM. For the same compound, the Ki [3] was 31.6 nM and the Css [5] was 700 nM.
For Cn1ccc2cc(NC(=O)Nc3ccncc3)ccc21, the pKb [1] was < 5.
With O=C(Nc1ccc2c(ccn2Cc2ccccc2)c1)Nc1ccnc2ccccc12 the pKb [1] was < 6.1.
Cn1ccc2cc(NC(=O)Nc3ccnc4ccccc34)ccc21 gave a pKb [1] of 7.5, a Ki [2] of 2.51 nM and a Ki [3] of 25.1 nM.
For N#Cc1ccc(NC(=O)Nc2ccnc3ccccc23)cc1, the pKb [1] was < 6.2.
Cc1nc2ccc(NC(=O)Nc3ccnc4ncccc34)cc2o1 showed a pKb [1] of 6.5.
CN(C)c1cccc(NC(=O)Nc2ccnc3ccccc23)c1 gave a pKb [1] of 6.1.
For Cn1ccc2cc(NC(=O)Nc3cccc4ccccc34)ccc21, the pKb [1] was < 6.3.
Cc1nc2ccc(NC(=O)Nc3ccnc4ccccc34)cc2o1 showed a pKb [1] of 7.7, a Ki [2] of 631 nM and a Ki [3] of 631 nM.
For O=C(Nc1ccc2ocnc2c1)Nc1ccnc2ccccc12, the pKb [1] was < 6.2.
With Nc1ccc(NC(=O)Nc2ccnc3ccccc23)cc1 the pKb [1] was < 6.1.
With O=C(Nc1ccc2c(c1)OCCCO2)Nc1ccnc2ccccc12 the pKb [1] was 7.4.
COc1ccc(NC(=O)Nc2ccnc3ccccc23)cc1Cl gave a Ki [2] of 15.8 nM and a Ki [3] of 50.1 nM.
Compound Cc1nc2ccc(NC(=O)Nc3ccnc4cccnc34)cc2o1 has a Ratio [4] of 0.4, a pKb [1] of 7.4 and a pKb [6] of 5.7. The Ki [2] was 3980 nM, the bioavailability [7] was 10% and the Ki [3] was > 5010 nM. The Css [5] was 490 nM, the half-life [8] was 24 min and the Brain level [9] was 3.8 µM. The Brain level [10] was <30 nM.
CN1CCc2cc(NC(=O)Nc3ccnc4ccccc34)ccc21 gave a pKb [1] of 7.6, a Ki [2] of 12.6 nM and a Ki [3] of 50.1 nM.
In the case of CSc1ccc(NC(=O)Nc2ccnc3ccccc23)cc1, the Ratio [4] is reported as 0.1, the pKb [1] is reported as 7.9 and the Ki [2] is reported as 31.6 nM. It also gave a Ki [3] of 31.6 nM and a Css [5] of 1000 nM.
Work on CSc1ccc(NC(=O)Nc2ccnc3cccnc23)cc1 yielded a pKb [1] of 7.5.
In the case of CN(C)c1ccc(NC(=O)Nc2ccnc3ccccc23)cc1, the Ratio [4] is reported as 0.06, the pKb [1] is reported as 7.8 and the Ki [2] is reported as 79.4 nM. For the same compound, the Ki [3] was 126 nM and the Css [5] was 4200 nM.
In the case of O=C(Nc1ccc2ncoc2c1)Nc1ccnc2ccccc12, the pKb [1] is reported as 7.
Work on COc1cccc(NC(=O)Nc2ccnc3ccccc23)c1 yielded a pKb [1] of 6.6.
